Here are results for 26 molecules from patent US9409914B2, “Triazolo[4,5-d]pyrimidine derivatives” (Merck Patent GmbH, priority 2012, dated 2016).

Test [1] has as its target T1, GCN2 (Homo sapiens, UniProt Q9P2K8). Nature of the test: Cellular assay for GCN2 activity (phospho-eIF2alpha immunocytochemistry, tryptophanol-stimulated U2OS cells). The arrangement: endogenous in cells; host or cells: U2OS. Particulars: 2 hours compound, then 600 μM tryptophanol 30 minutes, anti-phospho-eIF2alpha, read-out: IC50 GCN2 (cell assay). The class given is cell-based. The procedure:
Cellular Assay for the Determination of Compound Activities
Human U2OS cells (2000 cells/well) are seeded into 384-well plates and incubated for 20 hours.
The next day, the cells are treated with the test compounds and incubated for 2 hours. Then, tryptophanol, at a final concentration of 600 μM, is added to the cells and those are incubated for 30 minutes.
The analysis of cellular GCN2 activities is done by immunocytochemistry. Briefly, cells are fixated on the well surfaces by formaldehyde and permeabilised with Triton X-100. The primary antibody (anti-phospho-eIF2alpha (Ser51, Cell Signalling Technology, #3398) is incubated on the treated cells for 20 hours, followed by a 60 minutes incubation of the secondary antibody (anti-rabbit-IgG-Alexa 488; Molecular Probes #11008). The analysis and quantification of phosphorylated GCN2 is done by scanning the plates in the Acumen Explorer system (TTPLabtech). The obtained data are normalised against the untreated control wells (DMSO only) and expressed as % effect values. The determination of IC50 values is done by using the Graph Pad Prism software.
Target sequence in this assay (Q9P2K8 whole entry): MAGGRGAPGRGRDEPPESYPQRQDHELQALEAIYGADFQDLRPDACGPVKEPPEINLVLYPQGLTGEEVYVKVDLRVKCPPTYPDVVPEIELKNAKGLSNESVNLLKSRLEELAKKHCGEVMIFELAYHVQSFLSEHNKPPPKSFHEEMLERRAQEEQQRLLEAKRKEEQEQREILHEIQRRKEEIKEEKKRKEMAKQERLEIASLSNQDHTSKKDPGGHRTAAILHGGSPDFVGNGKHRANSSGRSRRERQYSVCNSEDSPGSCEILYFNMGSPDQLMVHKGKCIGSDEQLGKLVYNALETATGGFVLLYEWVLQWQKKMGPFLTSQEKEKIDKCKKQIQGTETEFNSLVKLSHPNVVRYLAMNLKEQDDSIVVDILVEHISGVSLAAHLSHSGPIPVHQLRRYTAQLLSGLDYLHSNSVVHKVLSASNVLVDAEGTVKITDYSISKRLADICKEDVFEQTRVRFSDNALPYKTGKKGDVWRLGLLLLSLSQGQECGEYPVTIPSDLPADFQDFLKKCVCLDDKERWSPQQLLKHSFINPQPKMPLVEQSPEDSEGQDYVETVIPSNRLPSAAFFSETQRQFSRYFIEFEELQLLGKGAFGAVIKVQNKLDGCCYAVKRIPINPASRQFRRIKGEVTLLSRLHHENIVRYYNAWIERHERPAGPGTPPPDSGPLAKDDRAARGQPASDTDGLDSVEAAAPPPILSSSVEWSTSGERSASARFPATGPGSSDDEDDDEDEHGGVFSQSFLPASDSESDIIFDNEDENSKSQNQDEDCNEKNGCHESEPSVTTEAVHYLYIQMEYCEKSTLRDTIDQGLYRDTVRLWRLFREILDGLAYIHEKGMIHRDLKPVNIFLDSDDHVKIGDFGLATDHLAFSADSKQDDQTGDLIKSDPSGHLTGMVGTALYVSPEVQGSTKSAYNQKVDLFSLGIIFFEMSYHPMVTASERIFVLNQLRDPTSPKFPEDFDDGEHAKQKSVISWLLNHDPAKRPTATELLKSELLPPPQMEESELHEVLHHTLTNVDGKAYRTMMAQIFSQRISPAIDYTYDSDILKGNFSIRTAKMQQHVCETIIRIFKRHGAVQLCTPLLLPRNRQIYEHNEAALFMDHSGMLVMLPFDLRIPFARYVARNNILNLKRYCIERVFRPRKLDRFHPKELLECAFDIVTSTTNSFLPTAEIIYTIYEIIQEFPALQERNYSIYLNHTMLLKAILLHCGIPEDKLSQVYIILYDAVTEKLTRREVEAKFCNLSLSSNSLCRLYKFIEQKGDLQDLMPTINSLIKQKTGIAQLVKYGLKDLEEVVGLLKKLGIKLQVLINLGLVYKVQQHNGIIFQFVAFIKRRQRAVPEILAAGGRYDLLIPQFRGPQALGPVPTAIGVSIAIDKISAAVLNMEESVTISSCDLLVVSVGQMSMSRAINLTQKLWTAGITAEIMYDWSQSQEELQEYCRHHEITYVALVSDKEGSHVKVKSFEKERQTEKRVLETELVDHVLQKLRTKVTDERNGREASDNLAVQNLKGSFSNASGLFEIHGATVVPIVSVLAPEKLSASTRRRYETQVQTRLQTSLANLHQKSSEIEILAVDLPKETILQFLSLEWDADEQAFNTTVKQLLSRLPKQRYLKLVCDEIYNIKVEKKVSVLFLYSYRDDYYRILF

Test [2] deals with T1, GCN2. Nature of the test: GCN2 enzyme assay (TR-FRET Lanthascreen, phosphorylation of GFP-eIF2alpha). The class given is biochemical. Particulars: 10 μM ATP, 80 nM GFP-eIF2alpha, 30 nM GCN2, room temperature. The essentials: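 Two-step TR-FRET (Lanthascreen) format: GCN2 incubated at room temperature with 10 μM ATP and 80 nM GFP-labelled eIF2alpha, then stopped with EDTA. Phospho-eIF2alpha detected by Tb-labelled antibody, excitation 340 nm; activity taken from the 520/495 nm emission ratio.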
Target sequence in this assay (Q9P2K8 whole entry, species assumed): as the sequence (Q9P2K8 whole entry) above
On the technique in general: Time-resolved FRET reads energy transfer from a long-lived donor to a nearby acceptor.

For `CN1CCC(n2cc(Nc3ncc4nnn(-c5ccc6ncccc6c5)c4n3)cn2)CC1` [Compound A75, [1-(1-methyl-piperidin-4-yl)-1H-pyrazol-4-yl]-(3-quinolin-6-yl-3H-[1,2,3]triazolo[4,5-d]pyrimidin-5-yl)-amine], the IC50 (usually the concentration needed to halve the response being measured) in test [1] was 0.3 to 3 µM; in test [2], under 0.3 µM.
Take `COCCOc1ccc(-n2nnc3cnc(Nc4cnn(C5CCN(C)CC5)c4)nc32)cc1` [Compound A27, 3-[4-(2-methoxyethoxy)phenyl]-N-[1-(1-methyl-4-piperidyl)pyrazol-4-yl]triazolo[4,5-d]pyrimidin-5-amine]: the IC50 in test [1] was 0.3 to 3 µM; in test [2] it was under 0.3 µM.
Taken in the same sequence, the figures for `CCn1cc(Nc2ncc3nnn(-c4ccc(C(C)(C)OCCO)cc4)c3n2)cn1` [Compound A127, 2-(1-{4-[5-(1-ethyl-1H-pyrazol-4-ylamino)-[1,2,3]triazolo[4,5-d]pyrimidin-3-yl]-phenyl}-1-methyl-ethoxy)-ethanol] were 0.3 to 3 µM and under 0.3 µM.
In the case of `COc1ccc(-n2nnc3cnc(Nc4cnn(C5CCNCC5)c4)nc32)cc1` [Compound A6, [3-(4-methoxy-phenyl)-3H-[1,2,3]triazolo[4,5-d]pyrimidin-5-yl]-(1-piperidin-4-yl-1H-pyrazol-4-yl)-amine], the IC50 in test [1] is 0.3 to 3 µM; in test [2], under 0.3 µM.
Taken in the same sequence, the figures for `CCn1cc(-n2nnc3cnc(Nc4cnn(C5CCN(C)CC5)c4)nc32)cn1` [Compound A79, [3-(1-ethyl-1H-pyrazol-4-yl)-3H-[1,2,3]triazolo[4,5-d]pyrimidin-5-yl]-[1-(1-methyl-piperidin-4-yl)-1H-pyrazol-4-yl]-amine] were 0.3 to 3 µM and under 0.3 µM.
Take `COCCOc1ccc(-n2nnc3cnc(Nc4cnn(CCn5cccn5)c4)nc32)cc1` [Compound A65, {3-[4-(2-methoxy-ethoxy)-phenyl]-3H-[1,2,3]trtazolo[4,5-d]pyrimidin-5-yl}-[1-(2-pyrazol-1-yl-ethyl)-1H-pyrazol-4-yl]-amine]: the IC50 is 0.3 to 3 µM in test [1] and under 0.3 µM in test [2].
Take `CN1CCC(n2cc(Nc3ncc4nnn(-c5ccc6[nH]ncc6c5)c4n3)cn2)CC1` [Compound A93, [3-(1H-indazol-5-yl)-3H-[1,2,3]triazolo[4,5-d]pyrimidin-5-yl]-[1-(1-methyl-piperidin-4-yl)-1H-pyrazol-4-yl]-amine]: the IC50 was 3 to 50 µM in test [1] and under 0.3 µM in test [2].
On to `CCn1cc(Nc2ncc3nnn(-c4ccc5c(c4)NC(=O)C5(C)C)c3n2)cn1` [Compound A84, 6-[5-(1-ethyl-1H-pyrazol-4-ylamino)-[1,2,3]triazolo[4,5-d]pyrimidin-3-yl]-3,3-dimethyl-1,3-dihydro-indol-2-one], for which the IC50 is 0.3 to 3 µM in test [1] and under 0.3 µM in test [2].
Take `CCn1cc(Nc2ncc3nnn(-c4ccc(C(=O)OC)cc4)c3n2)cn1` [Compound A117, 4-[5-(1-ethyl-1H-pyrazol-4-ylamino)-[1,2,3]triazolo[4,5-d]pyrimidin-3-yl]-benzoic acid methyl ester]: the values for the IC50 in test [1] and in test [2] were 0.3 to 3 µM and under 0.3 µM, respectively.
Take `COCCOc1ccc(-n2nnc3cnc(Nc4cnn(C5CCNC5)c4)nc32)cc1` (stereo not shown) [Compound A96, {3-[4-(2-methoxy-ethoxy)-phenyl]-3H-[1,2,3]triazolo[4,5-d]pyrimidin-5-yl}-(1-pyrrolidin-3-yl-1H-pyrazol-4-yl)-amine]: the IC50 in test [1] is 0.3 to 3 µM; in test [2], under 0.3 µM.
`CCn1cc(Nc2ncc3nnn(-c4ccc(C(C)(C)F)cc4)c3n2)cn1` [Compound A128, (1-ethyl-1H-pyrazol-4-yl)-{3-[4-(1-fluoro-1-methyl-ethyl)-phenyl]-3H-[1,2,3]triazolo[4,5-d]pyrimidin-5-yl}-amine]: the results for the IC50 in test [1] and in test [2] were 0.3 to 3 µM and under 0.3 µM, respectively.
Consider `CC(C)(O)c1ccc(-n2nnc3cnc(Nc4cnn(C5CCOCC5)c4)nc32)cc1` [Compound A119, 2-(4-{5-[1-(tetrahydro-pyran-4-yl)-1H-pyrazol-4-ylamino]-[1,2,3]triazolo[4,5-d]pyrimidin-3-yl}-phenyl)-propan-2-ol], for which the IC50 in test [1] was 0.3 to 3 µM; in test [2] it was under 0.3 µM.
On to `CN1CCC(n2cc(Nc3ncc4nnn(-c5cccc(C(N)=O)c5)c4n3)cn2)CC1` [Compound A67, 3-{5-[1-(1-methyl-piperidin-4-yl)-1H-pyrazol-4-ylamino]-[1,2,3]triazolo[4,5-d]pyrimidin-3-yl}-benzamide], for which the IC50 in test [1] was 3 to 50 µM; in test [2], under 0.3 µM.
On to `CCOc1ccc(-n2nnc3cnc(Nc4cnn(CCn5cccn5)c4)nc32)cc1` [Compound A54, [3-(4-ethoxy-phenyl)-3H-[1,2,3]triazolo[4,5-d]pyrimidin-5-yl]-[1-(2-pyrazol-1-yl-ethyl)-1H-pyrazol-4-yl]-amine], for which the IC50 is 0.3 to 3 µM in test [1] and under 0.3 µM in test [2].
Consider `COCCOc1ccc(-n2nnc3cnc(Nc4cnn(C5CCN(C(C)=O)C5)c4)nc32)cc1` (stereo not shown) [Compound A99, 1-[3-(4-{3-[4-(2-methoxy-ethoxy)-phenyl]-3H-[1,2,3]triazolo[4,5-d]pyrimidin-5-ylamino}-pyrazol-1-yl)-pyrrolidin-1-yl]-ethanone], for which the IC50 in test [1] is 3 to 50 µM; in test [2], under 0.3 µM.
`CCOc1ccc(-n2nnc3cnc(Nc4cnn(CC)c4)nc32)cc1` [Compound A46, [3-(4-ethoxy-phenyl)-3H-[1,2,3]triazolo[4,5-d]pyrimidin-5-yl]-(1-ethyl-1H-pyrazol-4-yl)-amine]: the half-maximal inhibitory concentration (IC50) in test [1] is 0.3 to 3 µM; in test [2], under 0.3 µM.
Regarding `CCOc1ccc(-n2nnc3cnc(Nc4cnn(CCC5CCN(C(C)=O)CC5)c4)nc32)cc1` [Compound A100, 1-[4-(2-{4-[3-(4-ethoxy-phenyl)-3H-[1,2,3]triazolo[4,5-d]pyrimidin-5-ylamino]-pyrazol-1-yl}-ethyl)-piperidin-1-yl]-ethanone], the IC50 is 3 to 50 µM in test [1] and under 0.3 µM in test [2].
Taken in the same sequence, the figures for `O[C@H]1CC[C@H](n2cc(Nc3ncc4nnn(-c5ccc(Cl)c(F)c5)c4n3)cn2)CC1` [Compound A103, 4-{4-[3-(4-chloro-3-fluoro-phenyl)-3H-[1,2,3]triazolo[4,5-d]pyrimidin-5-ylamino]-pyrazol-1-yl}-cyclohexanol] were under 0.3 µM and under 0.3 µM.
Taken in the same sequence, the figures for `CN1CCC(n2cc(Nc3ncc4nnn(-c5ccc(N6CCCC6=O)cc5)c4n3)cn2)CC1` [Compound A48, 1-(4-{5-[1-(1-methyl-piperidin-4-yl)-1H-pyrazol-4-ylamino]-[1,2,3]triazolo[4,5-d]pyrimidin-3-yl}-phenyl)-pyrrolidin-2-one] were 0.3 to 3 µM and under 0.3 µM.
Taken in the same sequence, the figures for `CCOc1ccc(-n2nnc3cnc(Nc4cnn(CCOC(C)(C)C)c4)nc32)cc1` [Compound A51, [1-(2-tert-butoxy-ethyl)-1H-pyrazol-4-yl]-[3-(4-ethoxy-phenyl)-3H-[1,2,3]triazolo[4,5-d]pyrimidin-5-yl]-amine] were 0.3 to 3 µM and under 0.3 µM.
In the case of `COCCOc1ccc(-n2nnc3cnc(Nc4cnn(C5CCOCC5)c4)nc32)cc1` [Compound A87, {3-[4-(2-methoxy-ethoxy)-phenyl]-3H-[1,2.3]triazolo[4,5-d]pyrimidin-5-yl}-[1-(tetrahydro-pyran-4-yl)-1H-pyrazol-4-yl]-amine], the IC50 in test [1] is 0.3 to 3 µM; in test [2], under 0.3 µM.
Take `CCOc1ccc(-n2nnc3cnc(Nc4cnn(CCCC5CCNCC5)c4)nc32)cc1` [Compound A125, [3-(4-ethoxy-phenyl)-3H-[1,2,3]triazolo[4,5-d]pyrimidin-5-yl]-[1-(3-piperidin-4-yl-propyl)-1H-pyrazol-4-yl]-amine]: the IC50 in test [1] and in test [2] was under 0.3 µM throughout.
For `CCOc1ccc(-n2nnc3cnc(Nc4cnn(CCN5CCOCC5)c4)nc32)cc1` [Compound A115, [3-(4-ethoxy-phenyl)-3H-[1,2,3]triazolo[4,5-d]pyrimidin-5-yl]-[1-(2-morpholin-4-yl-ethyl)-1H-pyrazol-4-yl]-amine], the IC50 was 3 to 50 µM in test [1] and under 0.3 µM in test [2].
Taken in the same sequence, the figures for `COc1ccc(-n2nnc3cnc(Nc4cn[nH]c4)nc32)cc1` [Compound A3, [3-(4-methoxy-phenyl)-3H-[1,2,3]triazolo[4,5-d]pyrimidin-5-yl]-(1H-pyrazol-4-yl)-amine] were 3 to 50 µM and under 0.3 µM.
Turning to `COCCN1CCC(n2cc(Nc3ncc4nnn(-c5ccc(OC)cc5)c4n3)cn2)CC1` [Compound A26, N-[1-[1-(2-methoxyethyl)-4-piperidyl]pyrazol-4-yl]-3-(4-methoxyphenyl)triazolo[4,5-d]pyrimidin-5-amine], the IC50 was 0.3 to 3 µM in test [1] and under 0.3 µM in test [2].
Taken in the same sequence, the figures for `Fc1cccc(-n2nnc3cnc(Nc4cnn(CCn5cccn5)c4)nc32)c1` [Compound A126, [3-(3-fluoro-phenyl)-3H-[1,2,3]triazolo[4,5-d]pyrimidin-5-yl]-[1-(2-pyrazol-1-yl-ethyl)-1H-pyrazol-4-yl]-amine] were 3 to 50 µM and under 0.3 µM.
